Where two headings read alike, the source gives them in different places.
Assays:
[1] = target: T1, Aβ1–42 (Homo sapiens, UniProt P05067); assay: Inhibition of self-induced Aβ1–42 aggregation (Thioflavin T assay); type: biochemical; details: ThT fluorescence, 24 h incubation, read-out: Inhibitory rate of compounds (25 μM) on self-induced Aβ1-42 aggregation
T1 construct: aliquots of 2 μL of Aβ1–42 (AS-64129–05 Anaspec Inc.); purchased Anaspec Inc. AS-64129–05
Method: Inhibitory effects of the compounds on self-induced Aβ1–42 aggregation were tested through a Thioflavin T (ThT)-(T3516, Sigma-Aldrich) binding assay.
The calculation of the inhibitory rate of Aβ1–42 self-induced aggregation was performed as the following equation: (1 − IFi/IFc) × 100%. IFi and IFc were the fluorescence intensities measured in the presence and absence of inhibitors, respectively, after subtracting the background fluorescence of the 5 mM ThT solution. Each compound was measured in triplicate.
A thioflavin T-based fluorometric assay was performed.

[2] = tested on: HepG2 cells; details: for Cell viability (% of vehicle): 24 h, MTT, mean ± SEM n = 3; for Antiproliferative activity on HepG2 cells (in words): MTT assay
Method: To determine the possible drug-induced hepatotoxicity, 10d and 10g were selected for preliminary hepatotoxicity evaluation. Heparinised serum was obtained after the treatment of the compounds at 8, 22, and 36 h, respectively. […] Additionally, immunohistochemical staining was performed on the liver tissues for the histopathological study.
Methods for Cell Viability Assay. The human hepatocellular HepG2 cells were […]
Cells were seeded into 96-well plates at a density of 3
37 °C for the following experiments. For cytotoxicity test, cells were treated with 0.05- […]
Cell viability was measured by 3-(4,5- dimethylthiazol-2-yl)-2,5-diphenyltetrazolium bromide (MTT) analysis. In brief, 15 µL of MTT was added into each well and incubated at 37 °C for 4 h. The […]
viability was calculated and presented by the percentage of vehicle-treated group.

[3] = tested on: adult male ICR mice; type: in vivo; details: mouse, in vivo
Method: . Heparinised serum was obtained from the retrobulbar plexus 8, 22, and 36 h after the administration and were subjected to hepatotoxicity evaluation. The activity of aspartate aminotransferase (AST) and alanine aminotransferase (ALT), two indicators of liver damage, was determined by a commercial assay kit (EF551 and EF550 for ALT, EH027 and EF548 for AST, Wako, Japan). The data were analysed by Biochemical Analyzer (HITACHI 7020, Japan).
Mice were sacrificed 1 h after the collection of retrobulbar blood and livers were removed for morphological studies by using the immunohistochemical method. Two 3 mm sections of each liver extending from the hilus to the margin of the left lateral lobe were isolated using ultra-thin semiautomatic microtome (Leica RM2245, Germany) and placed in 10% buffered formaldehyde immediately, fixed for two days, and embedded together in one paraffin block by using paraffin embedding station (Leica EG1150H, Germany). Subsequently, 5 μm sections were prepared from these paraffin blocks. They were deparaffinated and stained with hematoxylin and eosin (H&E) for histopathological examinations.

[4] = tested on: scopolamine-induced cognition-impaired adult ICR mice; assay: Morris water maze in scopolamine-induced cognition-impaired mice; type: in vivo; details: 30 mg/kg oral, scopolamine 1 mg/kg i.p., mean ± SEM n = 6; for Latency to target: probe trial
Method: Behavioral studies were performed using the Morris water maze[25] according to our method reported previously. Adult male imprinting control region (ICR) mice (8–10 weeks old, weight 20–25 g) were obtained from the Yangzhou University Medical Center (Yangzhou, China). All animal handling and experimental protocols were approved by the Institutional Animal Care and Use Committee of the China Pharmaceutical University. Scopolamine hydrobromide was purchased from Aladdin Reagents (S107418, Shanghai, China).
A circular pool (120 cm in diameter, 60 cm height) which was fixed with an escape platform (10 cm diameter) and filled to a depth of 40 cm fresh water (kept at 25 °C) composed the water maze and this water maze placed in a lit room was used to evaluate the cognition function and memory capacity of mice according to our previously described method[24] . After five days of learning and memory training, a probe trial was performed on day 6. For the evaluation of cognitive function, each mouse was individually trained on a visible-platform (labeled by a small flag, 5 cm tall) for two days and was followed by a hidden-platform version (placed 1 cm below the surface of the water) of the water maze from day 3 to day 5. All mice were subjected to two training trials daily, each of which lasted for 90 s. The time for each mouse to find the platform (a successful escape) was recorded. […] On the last day (day 6), a probe trial was given to the mice in which the platform was removed from the pool and each mouse was allowed 90 s to search for the platform. The time the animals spent to reach the missing platform location and the number of times they crossed that location were recorded.
Data for the time of escape latency, the swimming trajectory, and the number of visual platform crossings were recorded by Panlab SMART 3.0 (Panlab, S.L.U, Spain) and GraphPad Prism 5 was used to evaluate the level of memory retention.

[5] = target: T2, AChE (EC 3.1.1.7) from electric eel (Electrophorus electricus, UniProt O42275); assay: biochemical; details: for SI (selectivity index, AChE IC50/BuChE IC50): eeAChE IC50 / eqBuChE IC50; for IC50: eeAChE, mean ± SEM of triplicate independent experiments
T2 construct: AChE (EC 3.1.1.7, Type VI-S, from electric eel, C3389); purchased Sigma-Aldrich C3389; host or cells: electric eel (natural source)
Method: (§1) AChE (EC 3.1.1.7, Type VI-S, from electric eel, C3389) and BuChE (EC 3.1.1.8, from equine serum, C0663), 5,5’-dithiobis (2-nitrobenzoic acid) (DTNB, D218200), acetylthiocholine iodide (ATC, A5751) and butyrylthiocholine iodide (BTC, B3253) used as substrates were obtained from Sigma-Aldrich (St. Louis, MO).
(§2) The inhibitory capacity of the synthesised compounds on AChE and BuChE biological activity in this paper were evaluated according to our previously reported method. Briefly, AChE/BuChE stock solution was diluted with 0.2 M phosphate buffer pH 8.0 to give 2.5 units/mL (for electrophorus electricus (eeAChE) and equine serum (eqBuChE)). ATC/BTC iodide solution (0.075 M) was dissolved in deionized water. […] The assay solution was prepared as follows: potassium dihydrogen phosphate (1.36 g, 10 mmol) was dissolved in 100 ml of water. The pH of the solution was then adjusted to 8.0 ± 0.1 with KOH. Stock solutions of the test samples were dissolved in ethanol to give a final concentration of 10 − 4^ M when diluted to the final volume of 3.32 ml. For each compound, a dilution series of five different concentrations 10 − 5–10 − 9^9 M were prepared.
(§3) For measurement, a cuvette containing 3 mL of phosphate buffer, 100 μL of eeAChE or eqBuChE, 100 μL of DTNB, and 100 μL of the test compound solution was added in sequence. The reaction was initiated by adding 20 μL of ATC or BTC and the solution was mixed immediately. […] For the reference value, 100 μL of water was replaced for the test compound solution. For the blank control, additional 100 μL of water was also replaced for the enzyme solution. The measurement of each concentration was assayed in triplicate. GraphPad Prism 5 (GraphPad Software, Inc., La Jolla, CA) was used for data processing. The inhibition curve was fitted by plotting percentage enzyme activity (100% for the reference) versus the logarithm of test compound concentration. The half maximal inhibitory concentration (IC50) values were calculated according to the curve and the data were shown in mean ± SEM.
(§4) Inhibitory activities were presented as IC50 (nM).

[6] = target: T3, BuChE (EC 3.1.1.8) from horse serum (Equus caballus, UniProt P81908); assay: biochemical; details: eqBuChE, mean ± SEM of triplicate independent experiments
T3 construct: BuChE (EC 3.1.1.8, from equine serum, C0663); purchased Sigma-Aldrich C0663; host or cells: equine serum (natural source)
Method: as §1, §2, §3, §4

T1 sequence (P05067 672-713): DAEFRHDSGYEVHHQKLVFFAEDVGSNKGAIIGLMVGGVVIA
T2 sequence (O42275 24-633): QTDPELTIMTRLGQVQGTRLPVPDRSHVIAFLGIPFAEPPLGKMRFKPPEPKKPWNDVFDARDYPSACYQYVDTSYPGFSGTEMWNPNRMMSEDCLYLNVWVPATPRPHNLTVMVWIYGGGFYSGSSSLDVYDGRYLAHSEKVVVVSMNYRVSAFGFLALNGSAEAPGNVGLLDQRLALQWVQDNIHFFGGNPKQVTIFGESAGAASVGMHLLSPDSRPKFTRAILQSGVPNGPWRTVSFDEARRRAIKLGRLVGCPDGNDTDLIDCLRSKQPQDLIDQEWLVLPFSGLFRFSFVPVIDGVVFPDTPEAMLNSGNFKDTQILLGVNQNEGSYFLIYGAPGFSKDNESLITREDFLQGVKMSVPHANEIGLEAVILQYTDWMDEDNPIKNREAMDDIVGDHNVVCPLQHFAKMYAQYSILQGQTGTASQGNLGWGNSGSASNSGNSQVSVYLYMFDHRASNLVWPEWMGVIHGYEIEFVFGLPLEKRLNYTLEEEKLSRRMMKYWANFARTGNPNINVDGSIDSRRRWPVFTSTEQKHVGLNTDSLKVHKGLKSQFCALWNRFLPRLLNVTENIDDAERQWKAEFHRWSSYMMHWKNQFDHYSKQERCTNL
T3 sequence (P81908 whole entry): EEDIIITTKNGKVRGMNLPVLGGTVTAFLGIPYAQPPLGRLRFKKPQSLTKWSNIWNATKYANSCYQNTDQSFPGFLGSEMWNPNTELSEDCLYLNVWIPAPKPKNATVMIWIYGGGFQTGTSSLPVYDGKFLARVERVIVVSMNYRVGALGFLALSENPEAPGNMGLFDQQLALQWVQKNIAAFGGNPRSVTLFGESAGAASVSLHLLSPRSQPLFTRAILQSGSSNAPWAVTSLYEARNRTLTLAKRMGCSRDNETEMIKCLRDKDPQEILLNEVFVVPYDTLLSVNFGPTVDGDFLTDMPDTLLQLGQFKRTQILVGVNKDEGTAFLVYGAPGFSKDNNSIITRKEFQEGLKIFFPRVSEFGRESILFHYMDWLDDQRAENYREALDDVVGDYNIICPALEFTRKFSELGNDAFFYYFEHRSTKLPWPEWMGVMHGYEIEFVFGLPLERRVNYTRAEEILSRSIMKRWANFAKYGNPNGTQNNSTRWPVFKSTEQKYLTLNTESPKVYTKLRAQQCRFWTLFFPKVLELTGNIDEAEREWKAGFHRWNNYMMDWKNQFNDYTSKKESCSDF

## COc1cc(/C=C/C(=O)NCCNc2c3c(nc4ccccc24)CCCC3)ccc1OCc1ccc(C)c(C)c1 [Compound 10g, (E)-3–(4-((3,4-dimethylbenzyl)oxy)-3-methoxyphenyl)-N-(2-((1,2,3,4-tetrahydroacridin-9-yl)amino)ethyl)acrylamide]
[1]
  inhibition at 25 µM: 65.5%
[2]; HepG2, 0.05 µM
  Cell viability (% of vehicle): 128.4 ± 5.6 % of vehicle
[2]; HepG2, 0.1 µM
  Cell viability (% of vehicle): 124.6 ± 1.7 % of vehicle
[2]; HepG2, 0.5 µM
  Cell viability (% of vehicle): 121.7 ± 3.5 % of vehicle
[2]; HepG2, 2.5 µM
  Cell viability (% of vehicle): 128.9 ± 4.1 % of vehicle
[2]; HepG2, 5 µM
  Cell viability (% of vehicle): 1.5 ± 0.1 % of vehicle
[2]; HepG2, 50 µM
  Cell viability (% of vehicle): 1.9 ± 0.3 % of vehicle
[2]
  Antiproliferative activity on HepG2 cells (in words): relatively strong toxic effects
[3]
  Morphologic changes in liver (histopathology, HE staining): did not cause adverse morphologic changes in liver
[4]
  Distance to target: 612.85 ± 81.54 cm
  Speed in virtual platform: 17.27 ± 3.39 cm/s
  Latency to target: 24.73 ± 3.54 s
[5]
  SI (selectivity index, AChE IC50/BuChE IC50): 0.4
  IC50: 37 nM
[6]
  IC50: 101 ± 15.5 nM

## COc1cc(/C=C/C(=O)NCCNc2c3c(nc4ccccc24)CCCC3)ccc1OCc1ccc(C#N)cc1 [Compound 10j, (E)-3–(4-((4-cyanobenzyl)oxy)-3-methoxyphenyl)-N-(2-((1,2,3,4-tetrahydroacridin-9-yl)amino)ethyl)acrylamide]
[1]
  inhibition at 25 µM: 49.5%
[5]
  SI (selectivity index, AChE IC50/BuChE IC50): 1.3
  IC50: 107 ± 29.9 nM
[6]
  IC50: 79.8 ± 8.9 nM

## COc1cc(/C=C/C(=O)NCCNc2c3c(nc4ccccc24)CCCC3)ccc1OCc1ccc(Br)cc1 [Compound 10d, (E)-3–(4-((4-bromobenzyl)oxy)-3-methoxyphenyl)-N-(2-((1,2,3,4-tetrahydroacridin-9-yl)amino)ethyl)acrylamide]
[1]
  inhibition at 25 µM: 66.8%
[2]; HepG2, 0.05 µM
  Cell viability (% of vehicle): 129.7 ± 7.5 % of vehicle
[2]; HepG2, 0.1 µM
  Cell viability (% of vehicle): 125.0 ± 2.3 % of vehicle
[2]; HepG2, 0.5 µM
  Cell viability (% of vehicle): 125.6 ± 2.1 % of vehicle
[2]; HepG2, 2.5 µM
  Cell viability (% of vehicle): 130.6 ± 2.2 % of vehicle
[2]; HepG2, 5 µM
  Cell viability (% of vehicle): 13.2 ± 2.3 % of vehicle
[2]; HepG2, 50 µM
  Cell viability (% of vehicle): 2.5 ± 0.3 % of vehicle
[2]
  Antiproliferative activity on HepG2 cells (in words): relatively strong toxic effects
[3]
  Morphologic changes in liver (histopathology, HE staining): did not cause adverse morphologic changes in liver
[4]
  Distance to target: 628.95 ± 87.55 cm
  Speed in virtual platform: 18.82 ± 5.36 cm/s
  Latency to target: 19.08 ± 2.56 s
[5]
  SI (selectivity index, AChE IC50/BuChE IC50): 0.7
  IC50: 49.5 ± 3.8 nM
[6]
  IC50: 69.4 ± 13.4 nM
